In patent US4659696A, “Pharmaceutical composition and its nasal or vaginal use” (Takeda Chemical Industries, Ltd., priority 1982, dated 1987):

What was measured:
Type in all cases: in vivo, rat
plasma glucose level [1] = assay: Plasma glucose level after vaginal administration of insulin to rats; settings: for Plasma glucose level (%): just before administration=100; for reduction in the area under the plasma glucose level-time curve within 6 hours after administration: mean±standard error
plasma glucose level [2] = assay: Plasma glucose level after rectal insulin suppository in rats; settings: rectal Witepsol W-35 suppository, insulin 50 IU/kg, before administration=100
Excerpt: The results, which are shown in Table 11, indicate that the addition of α- or β-cyclodextrin results in an increased absorption of insulin.

plasma glucose level [3] = assay: Plasma glucose level after rectal administration of insulin solution to rats; settings: insulin 50 IU/kg, before administration=100
plasma glucose level [4] = assay: Plasma glucose level after nasal administration of insulin to rats; settings: before administration=100
Experimental: Male SD strain rats (body weights 250 g, approx.) fasted for 16 hours are used in groups of at least 3 animals. Each animal is anesthetized with pentobarbital and administered nasal medication in accordance with the method described in International Journal of Pharmaceutics 7, 317 (1981). Then, 0.1 ml/kg of insulin solution is directly administered into the nasal cavity with a micropipette via the nostril.
The insulin solution used is a mixed solution of 10 U or 20 U of porcine insulin (about 0.2 mg or […]) and 0 mg to 10 mg [which correspond to 0 to 10%] of α-, β- or γ-cyclodextrin in 0.1 ml of an isotonic buffer solution (pH 7.4).
As control, insulin is intravenously administered and plasma glucose levels are determined in the manner as above.

With insulin: porcine insulin the “Plasma glucose level (%)” value (plasma glucose level [1]; intravaginal (5% α-CD), insulin 20 Unit/kg, 0.5 hour) was 66.5%, the “Plasma glucose level (%)” value (plasma glucose level [1]; intravaginal (5% α-CD), insulin 20 Unit/kg, 1 hour) was 52.7% and the “Plasma glucose level (%)” value (plasma glucose level [1]; intravaginal (5% α-CD), insulin 20 Unit/kg, 2 hour) was 40.0%. The “Plasma glucose level (%)” value (plasma glucose level [1]; intravaginal (5% α-CD), insulin 20 Unit/kg, 3 hour) was 33.7%, the “Plasma glucose level (%)” value (plasma glucose level [1]; intravaginal (5% α-CD), insulin 20 Unit/kg, 4 hour) was 31.4% and the “Plasma glucose level (%)” value (plasma glucose level [1]; intravaginal (5% α-CD), insulin 20 Unit/kg, 6 hour) was 41.5%. For the same substance, the “Plasma glucose level (%)” value (plasma glucose level [1]; intravaginal (physiological saline), insulin 20 Unit/kg, no cyclodextrin, 0.5 hour) was 80.7%, the “Plasma glucose level (%)” value (plasma glucose level [1]; intravaginal (physiological saline), insulin 20 Unit/kg, no cyclodextrin, 1 hour) was 75.8% and the “Plasma glucose level (%)” value (plasma glucose level [1]; intravaginal (physiological saline), insulin 20 Unit/kg, no cyclodextrin, 2 hour) was 77.2%. The “Plasma glucose level (%)” value (plasma glucose level [1]; intravaginal (physiological saline), insulin 20 Unit/kg, no cyclodextrin, 3 hour) was 74.2%, the “Plasma glucose level (%)” value (plasma glucose level [1]; intravaginal (physiological saline), insulin 20 Unit/kg, no cyclodextrin, 4 hour) was 66.9% and the “Plasma glucose level (%)” value (plasma glucose level [1]; intravaginal (physiological saline), insulin 20 Unit/kg, no cyclodextrin, 6 hour) was 67.8%. The “pharmacological effect versus control vaginal administration group” value (plasma glucose level [1]; intravaginal, insulin 20 units/kg, 5% α-cyclodextrin) was “almost doubled”, the “reduction in the area under the plasma glucose level-time curve within 6 hours after administration” value (plasma glucose level [1]; intravaginal, insulin 20 units/kg, 5% α-cyclodextrin (invention group)) was 339.9±11.2 %×hour and the “reduction in the area under the plasma glucose level-time curve within 6 hours after administration” value (plasma glucose level [1]; intravaginal, insulin 20 units/kg, no cyclodextrin (control group)) was 158.2±29.6 %×hour. For the same substance, the “Plasma glucose level (%)” value (plasma glucose level [1]; subcutaneous, insulin 5 Unit/kg, no cyclodextrin, 0.5 hour) was 67.0%, the “Plasma glucose level (%)” value (plasma glucose level [1]; subcutaneous, insulin 5 Unit/kg, no cyclodextrin, 1 hour) was 54.7% and the “Plasma glucose level (%)” value (plasma glucose level [1]; subcutaneous, insulin 5 Unit/kg, no cyclodextrin, 2 hour) was 42.2%. The “Plasma glucose level (%)” value (plasma glucose level [1]; subcutaneous, insulin 5 Unit/kg, no cyclodextrin, 3 hour) was 35.1%, the “Plasma glucose level (%)” value (plasma glucose level [1]; subcutaneous, insulin 5 Unit/kg, no cyclodextrin, 4 hour) was 37.5% and the “Plasma glucose level (%)” value (plasma glucose level [1]; subcutaneous, insulin 5 Unit/kg, no cyclodextrin, 6 hour) was 74.1%. For the same substance, the “Change (%) in plasma glucose level” value (plasma glucose level [2]; 5% (w/w) α-cyclodextrin, 0.5 hr.) was 93.1%, the “Change (%) in plasma glucose level” value (plasma glucose level [2]; 5% (w/w) α-cyclodextrin, 1 hr.) was 61.1% and the “Change (%) in plasma glucose level” value (plasma glucose level [2]; 5% (w/w) α-cyclodextrin, 1.5 hr.) was 63.5%. The “Change (%) in plasma glucose level” value (plasma glucose level [2]; 5% (w/w) α-cyclodextrin, 2 hr.) was 86.1%, the “Change (%) in plasma glucose level” value (plasma glucose level [2]; 5% (w/w) α-cyclodextrin, 3 hr.) was 93.4% and the “Change (%) in plasma glucose level” value (plasma glucose level [2]; 5% (w/w) β-cyclodextrin, 0.5 hr.) was 87.1%. The “Change (%) in plasma glucose level” value (plasma glucose level [2]; 5% (w/w) β-cyclodextrin, 1 hr.) was 81.5%, the “Change (%) in plasma glucose level” value (plasma glucose level [2]; 5% (w/w) β-cyclodextrin, 1.5 hr.) was 80.1% and the “Change (%) in plasma glucose level” value (plasma glucose level [2]; 5% (w/w) β-cyclodextrin, 2 hr.) was 92.5%. For the same substance, the “Change (%) in plasma glucose level” value (plasma glucose level [2]; 5% (w/w) β-cyclodextrin, 3 hr.) was 100.4%, the “Change (%) in plasma glucose level” value (plasma glucose level [2]; no cyclodextrin, 0.5 hr.) was 98.1% and the “Change (%) in plasma glucose level” value (plasma glucose level [2]; no cyclodextrin, 1 hr.) was 94.1%. For the same substance, the “Change (%) in plasma glucose level” value (plasma glucose level [2]; no cyclodextrin, 1.5 hr.) was 97.4%, the “Change (%) in plasma glucose level” value (plasma glucose level [2]; no cyclodextrin, 2 hr.) was 98.1% and the “Change (%) in plasma glucose level” value (plasma glucose level [2]; no cyclodextrin, 3 hr.) was 102.5%. The “Change (%) in plasma glucose level” value (plasma glucose level [3]; 5% (w/v) α-cyclodextrin, 0.5 hr.) was 92.9%, the “Change (%) in plasma glucose level” value (plasma glucose level [3]; 5% (w/v) α-cyclodextrin, 1 hr.) was 39.1% and the “Change (%) in plasma glucose level” value (plasma glucose level [3]; 5% (w/v) α-cyclodextrin, 1.5 hr.) was 39.6%. The “Change (%) in plasma glucose level” value (plasma glucose level [3]; 5% (w/v) α-cyclodextrin, 2 hr.) was 69.6%, the “Change (%) in plasma glucose level” value (plasma glucose level [3]; 5% (w/v) β-cyclodextrin, 0.5 hr.) was 94.3% and the “Change (%) in plasma glucose level” value (plasma glucose level [3]; 5% (w/v) β-cyclodextrin, 1 hr.) was 70.1%. The “Change (%) in plasma glucose level” value (plasma glucose level [3]; 5% (w/v) β-cyclodextrin, 1.5 hr.) was 76.3%, the “Change (%) in plasma glucose level” value (plasma glucose level [3]; 5% (w/v) β-cyclodextrin, 2 hr.) was 90.1% and the “Change (%) in plasma glucose level” value (plasma glucose level [3]; 5% (w/v) γ-cyclodextrin, 0.5 hr.) was 94.8%. The “Change (%) in plasma glucose level” value (plasma glucose level [3]; 5% (w/v) γ-cyclodextrin, 1 hr.) was 79.0%, the “Change (%) in plasma glucose level” value (plasma glucose level [3]; 5% (w/v) γ-cyclodextrin, 1.5 hr.) was 81.3% and the “Change (%) in plasma glucose level” value (plasma glucose level [3]; 5% (w/v) γ-cyclodextrin, 2 hr.) was 93.0%. For the same substance, the “Change (%) in plasma glucose level” value (plasma glucose level [3]; no cyclodextrin, 0.5 hr.) was 102.2%, the “Change (%) in plasma glucose level” value (plasma glucose level [3]; no cyclodextrin, 1 hr.) was 86.0% and the “Change (%) in plasma glucose level” value (plasma glucose level [3]; no cyclodextrin, 1.5 hr.) was 95.2%. The “Change (%) in plasma glucose level” value (plasma glucose level [3]; no cyclodextrin, 2 hr.) was 121.9%, the “Change (%) in plasma glucose level” value (plasma glucose level [4]; intranasal, insulin 10 U/Kg, no cyclodextrin, 1 hr.) was 93.7% and the “Change (%) in plasma glucose level” value (plasma glucose level [4]; intranasal, insulin 10 U/Kg, no cyclodextrin, 2 hr.) was 99.3%. For the same substance, the “Change (%) in plasma glucose level” value (plasma glucose level [4]; intranasal, insulin 10 U/Kg, no cyclodextrin, 4 hr.) was 103.0%, the “Change (%) in plasma glucose level” value (plasma glucose level [4]; intranasal, insulin 10 U/Kg, α-cyclodextrin 3%, 1 hr.) was 73.5% and the “Change (%) in plasma glucose level” value (plasma glucose level [4]; intranasal, insulin 10 U/Kg, α-cyclodextrin 3%, 2 hr.) was 59.7%. For the same substance, the “Change (%) in plasma glucose level” value (plasma glucose level [4]; intranasal, insulin 10 U/Kg, α-cyclodextrin 3%, 4 hr.) was 62.9%, the “Change (%) in plasma glucose level” value (plasma glucose level [4]; intranasal, insulin 10 U/Kg, α-cyclodextrin 5%, 1 hr.) was 59.4% and the “Change (%) in plasma glucose level” value (plasma glucose level [4]; intranasal, insulin 10 U/Kg, α-cyclodextrin 5%, 2 hr.) was 46.8%. The “Change (%) in plasma glucose level” value (plasma glucose level [4]; intranasal, insulin 10 U/Kg, α-cyclodextrin 5%, 4 hr.) was 54.4%, the “Change (%) in plasma glucose level” value (plasma glucose level [4]; intranasal, insulin 10 U/Kg, α-cyclodextrin 10%, 1 hr.) was 33.8% and the “Change (%) in plasma glucose level” value (plasma glucose level [4]; intranasal, insulin 10 U/Kg, α-cyclodextrin 10%, 2 hr.) was 24.8%. For the same substance, the “Change (%) in plasma glucose level” value (plasma glucose level [4]; intranasal, insulin 10 U/Kg, α-cyclodextrin 10%, 4 hr.) was 40.3%, the “Change (%) in plasma glucose level” value (plasma glucose level [4]; intranasal, insulin 10 U/Kg, β-cyclodextrin 10% (suspension), 1 hr.) was 62.5% and the “Change (%) in plasma glucose level” value (plasma glucose level [4]; intranasal, insulin 10 U/Kg, β-cyclodextrin 10% (suspension), 2 hr.) was 48.6%. For the same substance, the “Change (%) in plasma glucose level” value (plasma glucose level [4]; intranasal, insulin 10 U/Kg, β-cyclodextrin 10% (suspension), 4 hr.) was 49.7%, the “Change (%) in plasma glucose level” value (plasma glucose level [4]; intranasal, insulin 10 U/Kg, γ-cyclodextrin 10%, 1 hr.) was 80.0% and the “Change (%) in plasma glucose level” value (plasma glucose level [4]; intranasal, insulin 10 U/Kg, γ-cyclodextrin 10%, 2 hr.) was 81.0%. For the same substance, the “Change (%) in plasma glucose level” value (plasma glucose level [4]; intranasal, insulin 10 U/Kg, γ-cyclodextrin 10%, 4 hr.) was 74.2%, the “Change (%) in plasma glucose level” value (plasma glucose level [4]; intranasal, insulin 20 U/Kg, no cyclodextrin, 1 hr.) was 92.4% and the “Change (%) in plasma glucose level” value (plasma glucose level [4]; intranasal, insulin 20 U/Kg, no cyclodextrin, 2 hr.) was 90.6%. The “Change (%) in plasma glucose level” value (plasma glucose level [4]; intranasal, insulin 20 U/Kg, no cyclodextrin, 4 hr.) was 99.9%, the “Change (%) in plasma glucose level” value (plasma glucose level [4]; intranasal, insulin 20 U/Kg, α-cyclodextrin 5%, 1 hr.) was 64.3% and the “Change (%) in plasma glucose level” value (plasma glucose level [4]; intranasal, insulin 20 U/Kg, α-cyclodextrin 5%, 2 hr.) was 38.4%. For the same substance, the “Change (%) in plasma glucose level” value (plasma glucose level [4]; intranasal, insulin 20 U/Kg, α-cyclodextrin 5%, 4 hr.) was 47.9%, the “Change (%) in plasma glucose level” value (plasma glucose level [4]; intravenous, insulin 5 U/Kg, no cyclodextrin, 1 hr.) was 29.6% and the “Change (%) in plasma glucose level” value (plasma glucose level [4]; intravenous, insulin 5 U/Kg, no cyclodextrin, 2 hr.) was 31.6%. The “Change (%) in plasma glucose level” value (plasma glucose level [4]; intravenous, insulin 5 U/Kg, no cyclodextrin, 4 hr.) was 41.7%.
